From patent publication US20250127933A1, “Method of verifying effectiveness and stability of linker in Drug Delivery system and Structure therefor” (INDUSTRY-ACADEMIC COOPERATION FOUNDATION OF SUNCHON …, priority 2023, published 2025)

Key:
[1] = pH-dependent stability test; type: physicochemical; conditions: 1 μM probe, pH 2 to 12, 25° C.
Protocol: Thermal stability was evaluated by the incubation of 1 μM of the probe in PBS buffer (pH 7.4) at different temperatures ranging from 25 to 45° C. for 20 min and reading fluorescence at each temperature. The pH stability test was performed by the incubation with 1 μM probe in different pH buffers (2 to 13) at 25° C. and recording fluorescence at each pH.

[2] = test system: Leucine aminopeptidase (LAP); experiment: Enzymatic kinetic study of LAP reaction of activatable fluorescent probes; type: biochemical, porcine; conditions: for Fluorophore released in LAP reaction (% yield) / Fluorophore released in LAP reaction (concentration) / kinetics of LAP reaction (time-dependent fluorescence emission): 1 μM probe, 10 μg/mL LAP, PBS pH 7.4, 37° C., 80 min; for Fluorophore released in LAP reaction (concentration): calculated from fluorophore calibration curves; for LAP response / fluorophore release (in words): LAP reaction, enzymatic study
Protocol: All spectroscopic readings were measured with BioTek Synergy™ H1 spectrophotometer, using 96 well microplate. A parent stock solution of probes was dissolved in DMSO to obtain 10 mM. Leucine aminopeptidase was dissolved in deionized water to obtain 1 mg/mL. All spectra measurements were carried out in PBS buffer solution (PBS buffer, 10 mM, pH 7.4, 37° C. The final volume in 96 well microplate was adjusted to 200 μL. RPMI 1640 was obtained from Thermo Scientific (Waltham, MA, USA). Bestatin hydrochloride (LAP inhibitor), DMSO and 2-mercaptoethanol were purchased from Sigma Aldrich (St. Louis, Mo, USA).
The kinetic study for LAP reaction was performed by incubation of 2 μg of LAP ([…]) with 1 μM probe in PBS buffer (10 mM, pH 7.4). The plate was incubated at 37° C. for 80 min with continuous shaking, and the emission spectra were recorded at the corresponding wavelength over time. A solution of LAP (2 μg/200 μL) was pretreated with bestatin (0, 1, 10, 50 and 100 μM) in PBS (10 mM, pH 7.4) at 37° C. for 30 min, and then 1 μM of probe was added. The mixture was incubated at 37° C., and the fluorescence was recorded on Synergy™ H1 using a 96-well microplate.
All reagents and solvents were obtained from commercial sources Sigma-Aldrich Chemical Co., Combi-Block, Tokyo Chemical Industries, Daejung Chemicals, and Alfa Aesar and used without purification. Anhydrous solvents were purchased from Sigma-Aldrich and used under dry nitrogen atmosphere. Ultrapure water was obtained from a water ultra-purification system. Completion of reaction was confirmed by thin layer chromatography (TLC) on Kiesegel 60F254 from Merck and all synthesized compounds were purified by flash column chromatography using ZEOprep 60 (40-63) […] silica gel from ZEOCHEM. ^1H and ^13C NMR spectra were measured on JEOL JNMECZ400s/L1 (400 MHZ) and CDCl3 or DMSO-d6 was used as the NMR solvents. The chemical shifts were quoted in parts per million (ppm) and the coupling constant (J) were reported in hertz unit (Hz). Chemical shifts (in ppm) were referenced to tetramethylsilane (δ=0 ppm) in CDCl3 as an internal standard. ^13C NMR spectra were reported in ppm referenced to the center line of the triplet at 77.0 ppm for CDCl3 or 39.5 ppm for DMSO-d6. All in vitro enzyme assays were performed by taking the absorbance and emission on Synergy™ H1 microplate reader from BioTek. Leucine aminopeptidase from porcine kidney and other enzymes were purchased from Sigma-Aldrich.

Fluorophore released in LAP reaction (% yield) [2]	Fluorophore released in LAP reaction (concentration) [2]	kinetics of LAP reaction (time-dependent fluorescence emission) [2]	LAP response / fluorophore release (in words) [2]	Structure (SMILES)	pH-dependent stability (fluorescence of fluorophore released by degradation) [1]
66.7%	~0.667 µM			CCN(CC)c1ccc2c(c1)Oc1cc(NC(=O)[C@@H](N)CC(C)C)ccc1C21OC(=O)c2ccccc21 (stereo partly drawn) [Probe 1, (2S)-2-Amino-N-(3′-(diethylamino)-3-oxo-3H-spiro[isobenzofuran-1,9′-xanthen]-6′-yl)-4-methylpentanamide]	increased fluorescence emission in the pH range of 7-9
29.8%	~0.298 µM	notably slower kinetics	lower responses	CCN(CC)c1ccc2c(c1)Oc1cc(OCc3ccc(NC(=O)[C@@H](N)CC(C)C)cc3)ccc1C21OCc2ccccc21 (stereo partly drawn) [Probe 11, (2S)-2-Amino-N-(4-(((3′-(diethylamino)-3H-spiro[isobenzofuran-1,9′-xanthen]-6′-yl)oxy)methyl)phenyl)-4-methylpentanamide]	
19.1%	~0.191 µM	notably slower kinetics	lower responses	CCN(CC)c1ccc2c(c1)Oc1cc(OCc3ccc(NC(=O)[C@@H](N)CC(C)C)cc3)ccc1C21OC(=O)c2ccccc21 (stereo partly drawn) [Probe 5, (2S)-2-Amino-N-(4-(((3′-(diethylamino)-3-oxo-3H-spiro[isobenzofuran-1,9′-xanthen]-6′-yl)oxy)methyl)phenyl)-4-methylpentanamide]	
74.1%	~0.741 µM			CCN(CC)c1ccc2c(c1)Oc1cc(NC(=O)[C@@H](N)CC(C)C)ccc1C21OCc2ccccc21 (stereo partly drawn) [Probe 7, (2S)-2-Amino-N-(3′-(diethylamino)-3H-spiro[isobenzofuran-1,9′-xanthen]-6′-yl)-4-methylpentanamide]	

Second part, the compound before the results:

Structure (SMILES)	Fluorophore released in LAP reaction (% yield) [2]	Fluorophore released in LAP reaction (concentration) [2]	kinetics of LAP reaction (time-dependent fluorescence emission) [2]	LAP response / fluorophore release (in words) [2]	pH-dependent stability (fluorescence of fluorophore released by degradation) [1]
COc1ccc2c(c1)Oc1cc(NC(=O)[C@@H](N)CC(C)C)ccc1C21OCc2ccccc21 (stereo partly drawn) [Probe 8, (2S)-2-Amino-N-(3′-methoxy-3H-spiro[isobenzofuran-1,9′-xanthen]-6′-yl)-4-methylpentanamide]	93.9%	~0.939 µM	faster kinetics than those of the corresponding P2 and P3 probes		
COc1ccc2c(c1)Oc1cc(OCc3ccc(NC(=O)[C@@H](N)CC(C)C)cc3)ccc1C21OCc2ccccc21 (stereo partly drawn) [Probe 12, (2S)-2-Amino-N-(4-(((3′-methoxy-3H-spiro[isobenzofuran-1,9′-xanthen]-6′-yl)oxy)methyl)phenyl)-4-methylpentanamide]	73.6%	~0.736 µM			
CCN(CC)c1ccc2c(c1)Oc1cc(NC(=O)OCc3ccc(NC(=O)[C@@H](N)CC(C)C)cc3)ccc1C21OCc2ccccc21 (stereo partly drawn) [Probe 9, 4-((S)-2-Amino-4-methylpentanamido)benzyl (3′-(diethylamino)-3H-spiro[isobenzofuran-1,9′-xanthen]-6′-yl)carbamate]	32.8%	~0.328 µM			
COc1ccc2c(c1)Oc1cc(NC(=O)OCc3ccc(NC(=O)[C@@H](N)CC(C)C)cc3)ccc1C21OCc2ccccc21 (stereo partly drawn) [Probe 10, 4-((S)-2-Amino-4-methylpentanamido)benzyl (3′-methoxy-3H-spiro[isobenzofuran-1,9′-xanthen]-6′-yl)carbamate]	67.6%	~0.676 µM			
